Series [1] has as its system mice. The series is described as follows: T-maze alternating sequential test (spatial working memory). The format is in vivo. The settings on record: intraperitoneal. The text has this: The alternating sequential test is widely used to assess spatial working memory in mice (Beracochea & Jaffard, 1987). Spontaneous alternation is the innate tendency of rodents to alternate their choices to entry into the compartments of arrival of a T-maze device, over successive trials. To alternate during a given trial N, the animal must remember the choice made selectively in test N−1, so the decline in alternating will reflect the phenomenon of oblivion. The response in alternating is performance measure. Sequential alternating assesses more specifically the sensitivity to interference, a major factor in oblivion.
The experiment takes place in a T-maze (50 cm×10 cm×25 cm). All the subjects were given 7 successive trials separated by a 120-s intertrial interval. To begin a trial, the mouse was placed in the start box for 120 s before the door to the stem was opened. When the subject entered one of the goal arms, the door to that arm was closed. The chosen arm and the time that elapsed between opening the door and the arrival to the end of the chosen arm (task achievement time) were registered. Following a 30-s confinement period (fixed and invariant) in the chosen arm, the animal was removed and placed in the start box for a new trial. Between each test, the unit is cleaned with a cloth soaked in water and alcohol to avoid olfactory detection. […]

For a further series, the system named is RIN cells. The series is described as follows: Toxicity analysis, cell viability by WST-1. The format is cell-based, rat. The settings on record: RIN cells treated 4 hours, grown 24 h; at the dose inhibiting cerebral connexins. The method, then:
Twenty thousand RIN were seeded in 100 μl of culture medium in 96-wells plates. After 48 h culture, cells were treated for 4 hours with previously identified chemical compounds at several concentrations. Cells were rinsed in PBS and grown 24 h in fresh medium. Cell viability was measured by using WST-1 (Roche).
A general note: Tetrazolium dyes change colour on reduction, which living cells bring about.

The next series concerns the target T1, Cx32 (Homo sapiens, UniProt P08034).
T1 construct: expressed in transfected cells; host or cells: rat insulinoma RIN cell line (Rin-Cx32), pcDNA3.1/V5-His-TOPO, geneticin-selected
The series is described as follows: Dye transfer (cell-parachute) gap junction assay, Rin-Cx32 cells. The format is cell-based. The following applies: flecainide racemate 70, 140 or 280 μM, 4 hours, flow cytometry. The protocol: (§1) The rat insulinoma RIN cell line, deficient in GJIC (del Corsso et al, 2006), was grown in OptiMem medium, supplemented with 10% fetal calf serum. GJB6 (Cx30), GJB1 (Cx32), GJB2 (Cx26), GJA5 (Cx40) and GJA1 (Cx43) open reading frames were amplified from human cDNA. The open reading frames were cloned in pcDNA3.1/V5-His-TOPO (Invitrogen). Cells were transfected using Lipofectamine and further selected using geneticin.
(§2) Cells were seeded and loaded with two fluorochromes, calcein acetoxymethyl ester, a gap junction permeable dye, and Vybrant Dil, a membrane lipophilic dye. […] Flow cytometry was conducted on a FACScan. Inhibition was quantified as the relative number of receiver cells that gained fluorescence to the total number of receiver cells (non GJ-mediated dye transfer was then substracted to these ratio based on connexin non-expressing RIN cells, defined at background dye transfer ratio). This ratio of cellular coupling was then normalized, after each treatment, on the vehicle one.
For orientation: Flow cytometry measures light scatter and fluorescence of single cells or particles in a stream.

A further series deals with T2, Cx30 (Homo sapiens, UniProt O95452).
T2 construct: expressed in transfected cells; host or cells: rat insulinoma RIN cell line (Rin-Cx30), pcDNA3.1/V5-His-TOPO, geneticin-selected
The series is described as follows: Dye transfer (cell-parachute) gap junction assay, Rin-Cx30 cells. The format is cell-based. The settings on record: flecainide racemate 70, 140 or 280 μM, 4 hours, flow cytometry. The method, then: as §1, §2

Series [2] deals with mice. In words: Locomotor activity by video tracking. The settings on record: oral. The series is classed as in vivo. The protocol: Locomotor activity is evaluated by video tracking. Videos have been analyzed using Ethovision XT software (Noldus®).*: p<0.01 in a Two-Way ANOVA analysis
A further series concerns the target T3, Cx26 (Homo sapiens, UniProt P29033).
T3 construct: expressed in transfected cells; host or cells: rat insulinoma RIN cell line (Rin-Cx26), pcDNA3.1/V5-His-TOPO, geneticin-selected
In words: Dye transfer (cell-parachute) gap junction assay, Rin-Cx26 cells. The series is classed as cell-based. The following applies: flecainide racemate 70, 140 or 280 μM, 4 hours, flow cytometry. The method, then: as §1, §2

Another series addresses T4, Cx40 (Homo sapiens, UniProt P36382).
T4 construct: expressed in transfected cells; host or cells: rat insulinoma RIN cell line (Rin-Cx40), pcDNA3.1/V5-His-TOPO, geneticin-selected
The series is described as follows: Dye transfer (cell-parachute) gap junction assay, Rin-Cx40 cells. The format is cell-based. The settings on record: flecainide racemate 70, 140 or 280 μM, 4 hours, flow cytometry. The method, then: as §1, §2

Series [3] relates to narcoleptic Ox-/- mice. In words: DREM cataplectic-like episodes in narcoleptic orexin knockout mice. The settings on record: oral. The series is classed as in vivo.
The test system of series [4] is Wild-type C57bl/6 male mice. In words: Wake duration by polysomnographic analysis. The following applies: oral. The format is in vivo. The text has this:
Wild-type C57bl/6 male mice (n=9/groups) were implanted with EEG/EMG/EOG electrodes for polysomnographic analyses. […] Here the inventors represented the duration of wake during the first three hours (after a one-hour period post-administration). **: p<0.01 in a One-Way ANOVA analysis.

The next series concerns the target T5, Cx43 (Homo sapiens, UniProt P17302).
T5 construct: expressed in transfected cells; host or cells: rat insulinoma RIN cell line (Rin-Cx43), pcDNA3.1/V5-His-TOPO, geneticin-selected
In words: Dye transfer (cell-parachute) gap junction assay, Rin-Cx43 cells. The format is cell-based. The following applies: flecainide racemate 70, 140 or 280 μM, 4 hours, flow cytometry. The method, then:
as §1, §2

Series [5] concerns cardiac myocyte cell pairs. The following applies: cardiac myocyte cell pairs (Daleau et al, 1998); cited from earlier work.
For series [6] the following is noted: poor metabolizers (PM) of sparteine/debrisoquine, 50 mg racemic flecainide acetate (Gross et al, 1989); cited from earlier work.
Series [7] concerns narcoleptic Ox-/- mice. The following applies: orexin KO mouse model, literature; cited from earlier work.
[8] abbreviates: flecainide racemate 1 mg/kg alone.

“Also recorded” adds a separate entry of the source.

T2 sequence (O95452 whole entry): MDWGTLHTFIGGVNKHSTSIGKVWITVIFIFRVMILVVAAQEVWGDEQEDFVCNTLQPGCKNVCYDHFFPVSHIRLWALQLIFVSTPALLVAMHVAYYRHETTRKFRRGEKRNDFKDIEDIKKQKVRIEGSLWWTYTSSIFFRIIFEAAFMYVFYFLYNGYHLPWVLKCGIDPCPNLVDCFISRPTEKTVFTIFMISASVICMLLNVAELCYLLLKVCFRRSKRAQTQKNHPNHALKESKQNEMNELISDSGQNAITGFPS
T5 sequence (P17302 2-382 limits assumed): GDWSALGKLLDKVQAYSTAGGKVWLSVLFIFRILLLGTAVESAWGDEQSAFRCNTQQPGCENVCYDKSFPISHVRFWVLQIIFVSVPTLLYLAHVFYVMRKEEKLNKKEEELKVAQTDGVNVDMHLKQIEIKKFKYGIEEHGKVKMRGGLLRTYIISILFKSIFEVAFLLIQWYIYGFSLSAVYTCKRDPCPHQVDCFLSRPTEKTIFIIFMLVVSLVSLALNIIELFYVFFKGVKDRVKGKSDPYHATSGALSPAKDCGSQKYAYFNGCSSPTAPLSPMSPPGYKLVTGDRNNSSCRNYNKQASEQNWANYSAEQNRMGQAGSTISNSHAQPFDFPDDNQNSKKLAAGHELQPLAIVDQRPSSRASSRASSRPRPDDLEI
T4 sequence (P36382 whole entry): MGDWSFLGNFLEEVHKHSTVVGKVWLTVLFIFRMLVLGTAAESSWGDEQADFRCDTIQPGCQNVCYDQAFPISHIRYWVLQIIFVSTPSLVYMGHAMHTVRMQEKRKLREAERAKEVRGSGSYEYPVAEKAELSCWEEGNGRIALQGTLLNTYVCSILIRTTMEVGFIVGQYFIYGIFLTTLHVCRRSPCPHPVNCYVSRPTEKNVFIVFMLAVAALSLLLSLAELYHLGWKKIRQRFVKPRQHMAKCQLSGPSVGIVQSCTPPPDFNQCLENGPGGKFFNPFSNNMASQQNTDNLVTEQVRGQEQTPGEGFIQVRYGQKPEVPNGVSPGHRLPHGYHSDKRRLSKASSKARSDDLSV
T1 sequence (P08034 whole entry): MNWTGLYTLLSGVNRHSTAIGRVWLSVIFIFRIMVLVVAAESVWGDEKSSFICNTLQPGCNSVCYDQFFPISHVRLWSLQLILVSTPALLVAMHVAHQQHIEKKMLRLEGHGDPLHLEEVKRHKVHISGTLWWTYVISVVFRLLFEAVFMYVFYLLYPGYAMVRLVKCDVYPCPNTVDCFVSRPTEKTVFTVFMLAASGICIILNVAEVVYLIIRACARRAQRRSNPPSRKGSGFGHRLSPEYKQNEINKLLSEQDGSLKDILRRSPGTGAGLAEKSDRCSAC

In the case of `O=C(NCC1CCCCN1)c1cc(OCC(F)(F)F)ccc1OCC(F)(F)F` (racemic) [flecainide, N-(piperidin-2-ylmethyl)-2,5-bis(2,2,2-trifluoroethoxy) benzamide], the “Cognitive (promnesiant) effect, flecainide alone” value in the series with mice [1] (setting [8]) is recorded as “no own cognitive effect”. Besides, the “Promnesiant activity of modafinil (percentage of alternation) with flecainide added” value in the series with mice [1] (modafinil 64 mg/kg + flecainide racemate 1 mg/kg) is recorded as “significantly potentiates”. In addition, in the series with RIN cells, the “Cell viability (WST-1)” value was “no cell toxicity”. Also, the “Inhibition of gap junction dye transfer (cellular coupling)” value at Cx32 is given as “inhibits all the tested isoforms”; at Cx30 it was “inhibits all the tested isoforms; also recorded: higher inhibition levels”; on Cx26, “inhibits all the tested isoforms; also recorded: higher inhibition levels”; on Cx40 it was “inhibits all the tested isoforms”; at Cx43, “inhibits all the tested isoforms; also recorded: higher inhibition levels”. The “Locomotor effect, flecainide alone” value with mice [2] (setting [8]) is “devoid of any own locomotor effect”. The “Duration of effect of modafinil on locomotor activity with flecainide added” value in the series with mice [2] (modafinil 64 mg/kg + flecainide 1 mg/kg) is recorded as “significantly increases the duration of effect of modafinil”. For the same compound, the “DREM cataplectic-like phenotype, flecainide alone” value in the series with narcoleptic Ox-/- mice [3] (setting [8]) is “no effect”. Further, the “Wake duration, flecainide alone” value in series [4] (flecainide 1 mg/kg alone) is recorded as “devoid of own effect on wake duration”. The “Waking effect of modafinil (wake duration) with flecainide added” value in series [4] (modafinil 32 mg/kg + flecainide racemate 1 mg/kg, first three hours after one-hour period) was “significantly increases”. For the same compound, in series [5], the “Influence on junctional resistance” value was “not to influence”.

For `O=C(NC[C@H]1CCCCN1)c1cc(OCC(F)(F)F)ccc1OCC(F)(F)F` [R-flecainide, (R)—N-(piperidin-2-ylmethyl)-2,5-bis(2,2,2-trifluoroethoxy)benzamide], in series [6], the half-life (as a rule, how long it takes for the measured level to halve) is recorded as 12.9 h and the urinary recovery was 15.6 ± 3.7 mg. Besides, the “DREM cataplectic-like phenotype, flecainide enantiomer combined with modafinil” value in the series on narcoleptic Ox-/- mice [3] (modafinil 64 mg/kg + enantiomer 1 mg/kg, R- compared with S-flecainide) was “more efficient”.

For `O=C(NC[C@@H]1CCCCN1)c1cc(OCC(F)(F)F)ccc1OCC(F)(F)F` [S-flecainide, (S)—N-(piperidin-2-ylmethyl)-2,5-bis(2,2,2-trifluoroethoxy)benzamide], in series [6], the half-life is reported as 9.8 h and the urinary recovery was 12.0 ± 3.7 mg.

For `NC(=O)C[S+]([O-])C(c1ccccc1)c1ccccc1` (stereo not drawn) [modafinil, 2-[(diphenylmethyl)sulfinyl] acetamide], in the series with narcoleptic Ox-/- mice [7], the “DREM episodes under modafinil (Lin et al, 2008)” value is “allows DREM episodes to persist”. Besides, the “DREM cataplectic-like phenotype, modafinil alone” value with narcoleptic Ox-/- mice [3] (modafinil 64 mg/kg alone) is “do not have any significant effect”.

Values taken from patent publication US10639301B2 (Commissariat a L'Energie Atomique et Aux Energies …, priority 2013, dated 2020).
